Patent US11174271B2, “6-membered uracil isosteres” (CV6 Therapeutics (NI) Limited, priority 2016, dated 2021)
pIC50: −log10 of the molar value. Each block holds one molecule with its values, some of them ahead of it.

Assays:
[1] = system: colorectal (HCT116 and SW620) cell line models; test: MTS growth inhibition assay; type: cell-based; settings: increasing concentrations of 5-FU between 0 and 100 μmol/L; both colorectal cancer cell lines
Description: The Cell Titer AQueous MTS assay (Promega) is carried out according to the manufacturers guidelines. […] The combination effect is determined by the combination index (CI) method utilizing Calcusyn software (Biosoft, Ferguson, Mo.). Fraction affected (FA) is calculated from the percent growth inhibition: FA=[…]. CI values <1, synergism; 1-1.2, additive and >1.2, antagonism.
Test compounds are evaluated for their antitumor activity in colorectal cancer cells using the MTS growth inhibition assay. HCT116 and SW620 cells are exposed to increasing concentrations of each agent for 72 hours and growth inhibition is directly compared to vehicle-treated controls. The NSCLC cell lines A549 and H1299 are exposed to increasing concentrations of each agent for 72 hours and growth inhibition is directly compared to vehicle-treated controls.
MTS growth inhibition assays are performed to evaluate the effectiveness of the test compounds alone and in combination with the fluoropyrimidine thymidylate synthase (TS) inhibitor 5-fluorouracil (5-FU) at inhibiting the growth of colorectal (HCT116 and SW620) cell line models. […] Simultaneous treatment with increasing concentrations of 5-FU and a test compound at fixed concentrations of 25 μmol/L is determined.

[2] = biological target: T1, recombinant human deoxyuridine nucleotidohydrolase (dUTPase) (Homo sapiens, UniProt P33316); test: fluorescence-based dUTPase inhibition assay (DNA polymerase-based dUTP detection); type: biochemical; settings: mean across three concentrations, typically 100, 50 and 25 μmol/L, compared to the in-run positive control
T1 construct: made in house
T1 sequence (P33316 1-164 isoform P33316-2): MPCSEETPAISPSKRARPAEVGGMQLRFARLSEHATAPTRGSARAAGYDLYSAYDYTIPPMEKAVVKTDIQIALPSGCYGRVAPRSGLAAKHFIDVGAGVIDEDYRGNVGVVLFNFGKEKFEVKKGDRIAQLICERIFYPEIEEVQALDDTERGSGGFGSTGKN
Description: Recombinant human deoxyuridine nucleotidohydrolase (dUTPase) is expressed and purified as described in Ladner R D, Carr S A, Huddleston M J, McNulty D E, Caradonna S J. J Biol Chem. 1996 Mar. 29; 271(13):7752-7. All drugs stocks are aliquoted and diluted as appropriate prior to use. The oligonucelotide primer, templates and fluorophore- and quencher-labeled detection probes are synthesized by Integrated DNA Technologies (Coralville, Iowa), subjected to polyacrylamide gel electrophoresis purification and reconstituted in Omnipur sterile nuclease-free water (EMD Chemicals USA, Gibbstown N.J.) at a stock concentration of 100 μmol/L. The two non-emissive (dark) quenching molecules incorporated into the detection probes include the Iowa black fluorescein quencher (IBFQ; absorption max 531 nm) and ZEN (non-abbreviation; absorption max 532 nm). The fluorescent label utilized is 6-FAM (5′-carboxyfluorescein; excitation max.=494 nm, emission max.=520 nm). Probes are further diluted to a working stock of 10 μmol/L and aliquoted to avoid repeated freeze/thaw cycles. AmpliTaq Gold DNA Polymerase, GeneAmp 10×PCR Buffer 2, MgCl2 and MicroAmp Optical 96-well Reaction Plates are purchased from Applied Biosystems (Carlsbad, Calif.). dNTPs are purchased individually at stock concentrations of 100 mmol/L from New England Biolabs at HPLC-certified >99% purity (Ipswich, Mass.).
Reaction mixtures contained primer, probe and template at an equimolar final concentration of 0.4 μmol/L. Magnesium chloride (MgCl2) is included at a final concentration of 2 mmol/L. Non-limiting dNTPs are included in the reaction mix in excess at a final concentration of 100 μmol/L (dUTP/dTTP is excluded). AmpliTaq Gold DNA polymerase is added at 0.875 U/reaction, 2.5 μl of 10×PCR buffer 2 added and nuclease-free ddH2O added to a final reaction volume of 25 μl. For dUTP inhibition analysis, the volume of ddH2O is further modified to accommodate an additional 1 μl of dUTPase (10 ng/μl) and 1 μl of inhibitor or DMSO control. Thermal profiling and fluorescence detection is performed using a customized thermal program on board a Roche Lightcycler LC480 Instrument II. For analysis of dNTPs, the thermal profile consisted of an 8 min 37° C. step followed by a 10 min 95° C. step to ‘hot-start’ the Taq polymerase and a primer extension time of up to 30 min at 60° C. Raw fluorescence spectra for 6-FAM is measured at specified time intervals to follow assay progression on board a Roche LightCycler 480 Software Version 1.5 and exported and analyzed in Microsoft Excel (Microsoft, Redmond Wash.) and Prism (GraphPad Software, La Jolla Calif.). Fluorescence values for blank reactions (limiting dNTP omitted) are subtracted to give normalized fluorescence units (NFU) to account for background fluorescence.
Test compounds were screened in a fluorescence-based assay. The assay employed a DNA polymerase-based approach utilizing an oligonucleotide template with 3 distinct regions: a 3′ primer binding region, a mid-template dUTP/thymidine triphosphate (TTP) detection region and a 5′ 6-[…] (FAM)-labeled probe binding region that incorporates a black hole quenching moiety. During the reaction, the probe and primer hybridize to the oligonucleotide template to form the template:primer:probe complex. When Taq polymerase binds to the primer in the TPP complex and dUTP is present, successful extension of the nascent strand occurs and the inherent 5′ to 3′ exonuclease activity of Taq polymerase cleaves and displaces the 6-FAM-labeled probe in a 5′ to 3′ direction, releasing the 6-FAM fluorophore from its proximity to the […]. This displacement effectively disrupts the Förster resonance energy transfer (FRET) and the resulting fluorescence detected upon excitation is directly proportional to the amount of the dUTP available in the assay for incorporation. […]

[3] = biological target: T1, recombinant human deoxyuridine nucleotidohydrolase (dUTPase); test: as above; type: biochemical; settings: 5 ng recombinant dUTPase, 50 pmols dUTP, 37° C. for 8 mins
[4] = system: colorectal (HCT116), breast (MCF-7) and non-small cell lung (H1299, A549, H358 and H460) cell line models; test: Colony forming assay; type: cell-based; settings: increasing concentrations of FUdR between 0.5 and 2.5 μmol/L; all cell lines evaluated
Description: Colony forming assay showing the ability of colon (SW620, HCT116), non-small cell lung (A549, H460, H1299 and H358) and breast (MCF7) cancer cells to survive and proliferate following transient 24 hour exposure to test compounds, FUdR and combinations are determined. Specifically, cells are seeded at densities between 50 and 100 cells/well in 24-well plates. […] After 24 hours, drug is removed, cells are rinsed and allowed to outgrow for 10-14 days. At the conclusion of the outgrowth, cells are fixed in 60% ice cold methanol and stained with 0.1% crystal violet, scanned and counted. Data is presented as percentage of untreated controls (mean±SD). Fraction affected and combination indexes are calculated according to the method of Chou and Talalay where <1 is indicative of a synergistic drug interaction.
Colony forming assays are performed to evaluate the effectiveness of test compounds alone and in combination with the fluoropyrimidine thymidylate synthase (TS) inhibitor fluorodeoxyuridine (FUdR) at reducing cancer cell viability in colorectal (HCT116), breast (MCF-7) and non-small cell lung (H1299, A549, H358 and H460) cell line models. […] In colorectal cancer cells, concentrations of test compounds ranging e.g., from 3.1 μmol/L to 50 μmol/L are combined with 0.5 μmol/L FUdR in HCT116 cells and 1 μmol/L FUdR in SW620 cells.

SMILES: O=c1[nH]cc(F)c(=O)[nH]1 [Example 5-FU, 5-fluorouracil]
growth inhibition [1]: dose-dependent increases in growth inhibition

% relative inhibition vs. positive control [2]: 149% | pIC50 [3]: 6.30
SMILES: C[C@@H](NS(=O)(=O)CCCOCN1CCC(=O)NC1=O)c1cccc(OC2CCCC2)c1 [Example 93, (R)—N-(1-(3-(cyclopentyloxy)phenyl)ethyl)-3-((2,4-dioxotetrahydropyrimidin-1(2H)-yl)methoxy)propane-1-sulfonamide]

SMILES: O=c1[nH]c(=O)n([C@H]2C[C@H](O)[C@@H](CO)O2)cc1F [FUdR, fluorodeoxyuridine]
colonies formed [4]: dose-dependent decreases in colonies formed
